The values that follow come from publication PMC9570838, “JND4135, a New Type II TRK Inhibitor, Overcomes TRK xDFG and Other Mutation Resistance In Vitro and In Vivo” (Molecules, 2022).

Data set [1] has as its system BaF3 ETV6-TRKC-F617L. The data set is described as follows: BaF3 cell proliferation, CCK-8 assay. To be noted: Mus musculus, BaF3, 72 h, read-out: IC50 (nM ± SD) Gatekeeper ETV6-TRKC-F617L. For orientation: Tetrazolium assays rely on reduction of a dye to a coloured formazan, in cell work by metabolically active cells.
Description: (§2) Murine BaF3 cells were purchased from JRCB cell bank. The BaF3 cell lines, which stably express natively-fused TRKA/B/C or various point mutants, were self-established by following previously described procedures. Briefly, NTRK genes were totally synthesized and cloned into pCDNA3.1(+) vectors (Invitrogen, Carlsbad, CA, USA). […] Stable strains were established by selection of cells 2 weeks post-transfection with 800 μg/mL G418 (Merck, Whitehouse Station, NJ) and further selection after the withdrawal of interleukin-3 (IL-3, R&D) for 2 weeks. All of BaF3 stable cell lines were verified by DNA sequencing, protein expression and anti-proliferation activity against positive drugs. […] All cells were grown at 37 °C in a humidified 5% CO2 atmosphere.
(§3) Cells were placed in 96-well plates (5000~8000/well) in complete medium. […] IC50 values were calculated by concentration-response curve fitting using GraphPad Prism 5.0 software. Each IC50 value is expressed as mean ± SD.
Data set [2] addresses T1, TRKC-G696C (Homo sapiens, UniProt Q16288, G696C).
T1 construct: residues 526–839 from the kinase domain; made in house
The data set is described as follows: Bio-layer interferometry (BLI) Octet binding assay. The protocol:
Biolayer interferometry (BLI) assays were performed with the Octet K2 machine (ForteBio, Inc., Fremont, CA, USA). […] A duplicate set of sensors was incubated in an assay buffer (PBS containing 0.02% Tween20 and 0.1% BSA) with 5% DMSO but without protein for use as a background binding control. Both sets of sensors were blocked with a solution of 10 μg/mL biocytin for 1 min at rt. […] Data was analyzed by the FortéBio Data Analysis 8.1 software (FortéBio, Fremont, CA, USA) using a double reference subtraction (sample and sensor references).
Background: In BLI a coated tip is dipped into the sample, and binding shifts an interference pattern.

The subject of data set [3] is BaF3 ETV6-TRKB. The data set is described as follows: BaF3 cell proliferation, CCK-8 assay. Particulars: Mus musculus, BaF3, 72 h, read-out: IC50 (nM ± SD) WT ETV6-TRKB.
Description: as §2, §3
Data set [4] concerns BaF3 ETV6-TRKB-G709C. Description: BaF3 cell proliferation, CCK-8 assay. To be noted: Mus musculus, BaF3, 72 h, read-out: IC50 (nM ± SD) xDFG ETV6-TRKB-G709C.
Description: as §2, §3
Data set [5] deals with BaF3 ETV6-TRKC-G696C. Description: BaF3 cell proliferation, CCK-8 assay. To be noted: Mus musculus, BaF3, 72 h, read-out: IC50 (nM ± SD) xDFG ETV6-TRKC-G696C.
Description: as §2, §3
Data set [6] relates to BaF3 CD74-TRKA-G667C. The data set is described as follows: BaF3 cell proliferation, CCK-8 assay. Particulars: Mus musculus, BaF3, 72 h, read-out: IC50 (nM ± SD) xDFG CD74-TRKA-G667C.
Description: as §2, §3
Data set [7] has as its system BaF3-CD74-TRKA-G667C cells (p-TRKA, ERK, PLCγ). Description: Western blot of TRK signaling. The data set is classed as cell-based, Murine. Particulars: 6 h treatment. The protocol:
(§1) Cells were treated with various concentrations of each tested compound for a designated time. Then cells were lysed using 1 × SDS sample lysis buffer (CST recommended) with protease and phosphatase inhibitors. […] The films were blocked with 5% fat-free milk in TBS solution containing 0.5% Tween-20 for 4 h at room temperature, then incubated with the corresponding primary antibody (1:1000–1:200) overnight at 4 °C. After washing with TBST, HRP-conjugated secondary antibody was incubated for 2 h. The protein signals were visualized by ECL Western Blotting Detection Kit (Thermo Scientific, Waltham, MA, USA), and detected with Amersham Imager 600 system (GE, Boston, MA, USA).
(Immunoblotting shows a protein as a band on a membrane.)

Data set [8] relates to BaF3-CD74-TRKA-G595R cells (p-TRKA, ERK, PLCγ). The data set is described as follows: Western blot of TRK signaling. The data set is classed as cell-based, Murine. To be noted: 6 h treatment. Here is the method: as §1
Data set [9] concerns BaF3-CD74-TRKA-WT cells (p-TRKA, ERK, PLCγ). The data set is described as follows: Western blot of TRK signaling. The data set is classed as cell-based, Murine. To be noted: 6 h treatment. The protocol: as §1
Data set [10] deals with BaF3 ETV6-TRKB-F633L. The data set is described as follows: BaF3 cell proliferation, CCK-8 assay. Particulars: Mus musculus, BaF3, 72 h, read-out: IC50 (nM ± SD) Gatekeeper ETV6-TRKB-F633L.
Description: as §2, §3
Data set [11] deals with BaF3-CD74-TRKA-G667C xenograft. The data set is described as follows: BaF3-CD74-TRKA-G667C xenograft model. To be noted: for TGI (tumor growth inhibition): intraperitoneally once daily, 12 consecutive days. It counts as in vivo.
The target in data set [12] is T2, TRKA (Homo sapiens, UniProt P04629).
T2 construct: purchased Invitrogen
The data set is described as follows: FRET-based Z'-Lyte kinase assay. It counts as biochemical. To be noted: mean ± SD, read-out: IC50 TRKA kinase inhibition.

Data set [13] relates to BaF3 cells harboring wild-type TRKA/B/C. The data set is described as follows: BaF3 cell proliferation, summary over wild-type lines. To be noted: Mus musculus, BaF3, read-out: IC50 range in BaF3 cells harboring wild-type TRKA/B/C.
Excerpt: Murine BaF3 cells were purchased from JRCB cell bank. The BaF3 cell lines, which stably express natively-fused TRKA/B/C or various point mutants, were self-established by following previously described procedures. Briefly, NTRK genes were totally synthesized and cloned into pCDNA3.1(+) vectors (Invitrogen, Carlsbad, CA, USA). The pCDNA3.1(+) plasmids containing different NTRK-fusion genes were introduced into BaF3 cells by electroporation (Amaxa Nucleofector II device) using the “Amaxa Cell Line Nucleofector Kit V” (VCA-1003) according to the manufacturer’s directions. Stable strains were established by selection of cells 2 weeks post-transfection with 800 μg/mL G418 (Merck, Whitehouse Station, NJ) and further selection after the withdrawal of interleukin-3 (IL-3, R&D) for 2 weeks. All of BaF3 stable cell lines were verified by DNA sequencing, protein expression and anti-proliferation activity against positive drugs. […]
as §3
The subject of data set [14] is BaF3 CD74-TRKA-F589L. The data set is described as follows: BaF3 cell proliferation, CCK-8 assay. Particulars: Mus musculus, BaF3, 72 h, read-out: IC50 (nM ± SD) Gatekeeper CD74-TRKA-F589L.
Description: as §2, §3
The test system of data set [15] is BaF3 cells with gatekeeper mutations (TRKA^F589L, TRKB^F663L, TRKC^F617L). The data set is described as follows: BaF3 cell proliferation, summary over gatekeeper lines. To be noted: Mus musculus, BaF3, read-out: IC50 in cells with gatekeeper mutations.
Description: as §2, §3

As a reminder, the Kd is the constant that tells how readily two partners part at equilibrium. Take `Cc1c(C#Cc2cnc3cnc(-c4ccc(N)cc4)cn23)cccc1C(=O)Nc1cc(CN2CCN(C)CC2)cc(C(C)C)c1` [JND4135, 3-((6-(4-aminophenyl)imidazo[1,2-a]pyrazin-3-yl)ethynyl)-N-(3-isopropyl-5-((4-methylpiperazin-1-yl)methyl)phenyl)-2-methylbenzamide]: the IC50 in data set [1] was determined as 37.3 ± 14 nM; in data set [3], 23.1 ± 5.9 nM; in data set [4], 18.7 ± 2.9 nM; in data set [5] it was 1.3 ± 0.7 nM; in data set [6], 1.4 ± 0.2 nM; in [10], 178 ± 4.3 nM. Besides, the IC50 is 2.79 ± 1.17 nM in data set [12], 2.4 to 23.1 nM in [13], 75 ± 12.7 nM in [14] and 37.3 to 178 nM in [15]. Also, in data set [2] (Koff, read-out: dissociation rate with TRKC-G696C), the koff amounted to 0.00135 s⁻¹. Moreover, the dissociation constant (Kd) in data set [2] (read-out: Kd, binding affinity to TRKC-G696C) came out at 3.68 nM. For the same compound, the “concentration from which phosphorylation of TRKA and downstream ERK, PLCγ decreased” value was determined as 1.6 nM in data set [7], 40 nM in [8] and 8 nM in [9]. The “TGI (tumor growth inhibition)” value in data set [11] (20 mg/kg) amounted to 34.2%; in data set [11] (40 mg/kg), 81.0%. Moreover, the “tolerability (mortality, body weight)” value in data set [11] (20 and 40 mg/kg/day, 12 days) is on record as “no mortality or significant body weight loss”. Further, in [11] (tumor tissues at end of treatment, Western blot), the “activation of TRKA and downstream molecules PLCγ-1 and ERK in tumor tissues” value is reported as “effectively inhibit”.
